According to ChEMBL document CHEMBL1201862, “PubChem BioAssay data set” (2004):
Structures can show the parent of a compound that is named as a salt. The source made the active and inactive calls.

Tests used:
[1] = biological target: T1, Polyadenylate-binding protein 1 (Homo sapiens, UniProt P11940); assay: MLLE binding blockers, Cy5 peptide tracer – biochemical, fluorescence polarization, Cy5-PAM2 peptide, secondary, miRNA deadenylation inhibitor project, dose response (AID 602260); type: functional; conditions: read-out: IC50_Mean
[2] = NIH-3T3 fibroblast cytotoxicity, dose response, cytotoxicity control, cell-based, fluorescence, Alamar Blue, secondary assay (AID 2327); type: functional;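 note: NIH-3T3 mouse fibroblasts cultured with fluconazole at 8 µg/mL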
[3] = fluconazole-exposed Candida albicans growth modulators – fluorescence, retest, confirmation (AID 2467); type: functional, cell-based
[4] = biological target: T1, Polyadenylate-binding protein 1; assay: MLLE domain peptide-binding blockers, IC50 – biochemical, fluorescence polarization, FITC-PAM2 peptide, dose response (AID 602259); type: functional; conditions: read-out: IC50_Mean
[5] = biological target: T2, Zinc finger protein mex-5 (Caenorhabditis elegans, UniProt Q9XUB2); assay: potency of MEX-5 RNA-binding blockers – biochemical, C. elegans, fluorescence polarization, dose response (AID 1960)
T2 sequence (Q9XUB2 whole entry): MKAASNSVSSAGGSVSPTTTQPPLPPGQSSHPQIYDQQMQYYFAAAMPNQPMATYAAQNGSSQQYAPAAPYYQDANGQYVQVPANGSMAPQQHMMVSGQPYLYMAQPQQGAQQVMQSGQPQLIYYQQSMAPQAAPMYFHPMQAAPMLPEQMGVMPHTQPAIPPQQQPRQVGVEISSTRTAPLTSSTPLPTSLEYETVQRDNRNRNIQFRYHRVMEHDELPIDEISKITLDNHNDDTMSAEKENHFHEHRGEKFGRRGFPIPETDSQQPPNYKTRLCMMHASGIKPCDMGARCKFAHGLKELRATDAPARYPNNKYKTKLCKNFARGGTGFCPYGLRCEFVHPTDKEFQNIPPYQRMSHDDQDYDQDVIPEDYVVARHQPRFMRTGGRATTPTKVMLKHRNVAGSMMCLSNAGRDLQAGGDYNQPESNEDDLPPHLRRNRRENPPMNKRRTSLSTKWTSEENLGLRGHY

[6] = biological target: T3, RNA-binding protein pos-1 (Caenorhabditis elegans, UniProt G5EF15); assay: disruptors of C. elegans POS-1 RNA interaction – biochemical, fluorescence polarization, dose response (AID 1964);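 note: purified POS-1 fused to maltose binding protein made in E. coli; potency of compounds blocking POS-1 binding to fluorescent RNA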
T3 sequence (G5EF15 whole entry): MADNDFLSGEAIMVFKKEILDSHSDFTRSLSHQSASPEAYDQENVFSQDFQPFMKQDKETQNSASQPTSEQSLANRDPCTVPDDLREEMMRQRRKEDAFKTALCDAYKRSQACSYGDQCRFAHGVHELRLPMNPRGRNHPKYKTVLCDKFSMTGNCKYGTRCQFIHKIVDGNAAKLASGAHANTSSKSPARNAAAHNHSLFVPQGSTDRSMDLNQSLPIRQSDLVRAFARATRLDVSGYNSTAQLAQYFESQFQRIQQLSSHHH

Protein skinhead-1 = biological target: T4, Protein skinhead-1 (Caenorhabditis elegans, UniProt P34707); type: functional
T4 sequence (P34707 whole entry): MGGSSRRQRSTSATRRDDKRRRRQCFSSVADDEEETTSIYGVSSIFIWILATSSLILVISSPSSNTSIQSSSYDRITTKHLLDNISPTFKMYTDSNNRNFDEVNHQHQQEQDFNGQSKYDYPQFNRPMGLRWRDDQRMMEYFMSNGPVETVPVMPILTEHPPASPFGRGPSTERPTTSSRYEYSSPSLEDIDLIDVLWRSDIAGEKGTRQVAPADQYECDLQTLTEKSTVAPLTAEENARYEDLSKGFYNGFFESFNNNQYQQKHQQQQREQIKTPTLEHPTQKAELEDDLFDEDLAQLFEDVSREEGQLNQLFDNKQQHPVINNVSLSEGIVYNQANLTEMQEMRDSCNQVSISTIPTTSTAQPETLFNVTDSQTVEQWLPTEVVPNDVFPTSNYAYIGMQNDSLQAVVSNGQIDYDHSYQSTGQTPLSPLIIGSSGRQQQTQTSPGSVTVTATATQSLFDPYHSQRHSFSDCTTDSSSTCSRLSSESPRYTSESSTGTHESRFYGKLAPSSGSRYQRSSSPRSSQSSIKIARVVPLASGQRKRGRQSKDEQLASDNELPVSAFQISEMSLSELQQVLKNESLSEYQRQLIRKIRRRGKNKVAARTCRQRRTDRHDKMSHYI

[7] = microbe, parasite or virus in culture; type: functional; conditions: Mycobacterium tuberculosis
H9c2 = assay: cells; type: functional, cell-based; conditions: Rattus norvegicus, H9c2, Myocardium
[8] = biological target: T5, Corticotropin-releasing factor receptor 2/Corticotropin-releasing factor-binding protein (Homo sapiens, UniProt P24387+Q13324); assay: activators of CRF receptor 2 with binding protein – uHTS hits, confirmation (AID 602473); type: functional; conditions: read-out: EC50_Mean
T5 sequence (Q13324 whole entry): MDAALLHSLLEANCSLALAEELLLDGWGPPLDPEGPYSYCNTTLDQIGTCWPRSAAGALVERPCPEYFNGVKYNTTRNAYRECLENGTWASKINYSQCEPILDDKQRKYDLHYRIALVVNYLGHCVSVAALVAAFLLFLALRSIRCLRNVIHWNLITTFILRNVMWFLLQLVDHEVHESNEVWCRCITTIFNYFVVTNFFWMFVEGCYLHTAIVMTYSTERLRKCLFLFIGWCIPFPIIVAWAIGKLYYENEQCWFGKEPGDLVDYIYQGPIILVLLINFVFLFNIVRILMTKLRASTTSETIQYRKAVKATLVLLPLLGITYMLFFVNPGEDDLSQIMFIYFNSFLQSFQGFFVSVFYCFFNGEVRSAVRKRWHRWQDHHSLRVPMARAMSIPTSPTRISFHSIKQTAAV
T5 sequence (P24387 whole entry): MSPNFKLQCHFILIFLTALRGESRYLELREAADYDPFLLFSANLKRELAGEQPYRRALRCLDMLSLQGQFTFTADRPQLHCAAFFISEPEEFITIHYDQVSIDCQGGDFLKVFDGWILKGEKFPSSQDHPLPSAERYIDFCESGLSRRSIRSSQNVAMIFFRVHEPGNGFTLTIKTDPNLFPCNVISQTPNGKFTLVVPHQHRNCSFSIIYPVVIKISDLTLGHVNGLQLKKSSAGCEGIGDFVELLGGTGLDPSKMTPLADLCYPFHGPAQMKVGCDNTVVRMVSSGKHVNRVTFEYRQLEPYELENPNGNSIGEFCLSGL

[9] = biological target: T5, Corticotropin-releasing factor receptor 2/Corticotropin-releasing factor-binding protein; assay: Dose Response confirmation of uHTS hits for small molecule antagonists of the CRF-binding protein and CRF-R2 receptor complex.; type: functional; conditions: read-out: IC50_Mean
Paired box protein Pax-8 = Paired box protein Pax-8 (Homo sapiens, UniProt Q06710); assay: PAX8 transcriptional activity inhibition in RMG-I – RMG-I cells, luciferase, cherry-pick, dose response (AID 687027); type: functional, cell-based;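 note: luciferase reporter driven by Pax8 target thyroperoxidase promoter measured by SteadyGlo luminescence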
[10] = non-specific 3'UTR reporter inhibition in Clone20-Shn3RL – cell-based, Renilla luciferase, cherry-picked, counter-screen for Shn3 inhibitor project, dose response (AID 624133); type: functional
[11] = reduction of Shn3 3'UTR-driven luciferase in osteoblasts – cell-based, Clone20 osteoblasts, firefly luciferase, cherry-picked, dose response (AID 624132); type: functional;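 note: firefly luciferase luminescence from reporter carrying the Shn3 3'UTR in osteoblasts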
[12] = loss of viability in HepG2 cells – cell-based, CellTiter-Glo, cherry-picked, cytotoxicity control for Shn3 inhibitor project, dose response (AID 624134); type: functional
[13] = biological target: T6, Carboxy-terminal domain RNA polymerase II polypeptide A small phosphatase 1 (Homo sapiens, UniProt Q9GZU7); assay: CTDSP1 inhibitors, concentration-response, biochemical, absorbance readout, ultra-high-throughput screen actives (AID 540297); type: functional
T6 sequence (Q9GZU7 whole entry): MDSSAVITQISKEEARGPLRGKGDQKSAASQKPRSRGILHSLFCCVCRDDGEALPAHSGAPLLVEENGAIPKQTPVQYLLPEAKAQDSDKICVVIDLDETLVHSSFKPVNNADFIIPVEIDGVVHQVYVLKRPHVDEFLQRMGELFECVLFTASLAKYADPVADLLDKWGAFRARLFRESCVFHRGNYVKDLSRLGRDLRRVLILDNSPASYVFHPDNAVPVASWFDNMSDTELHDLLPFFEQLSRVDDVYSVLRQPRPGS

[14] = NIH3T3 cell viability loss – ATP luminescence, mouse fibroblasts, counter-screen, dose response (AID 2010); type: functional, cell-based;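 note: cells exposed to compound for about 90 hours before reading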
[15] = Trypanosoma cruzi growth suppression in host cells – NIH3T3 host cells, beta-gal luminescence, confirmation (AID 2044); type: functional, cell-based;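 note: intracellular parasites grown in NIH/3T3 mouse fibroblasts as host cells; luminescent beta-galactosidase reporter signal from transgenic T. cruzi replicating inside host cells; inhibitors lower the luminescence signal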

T1 sequence (P11940 whole entry): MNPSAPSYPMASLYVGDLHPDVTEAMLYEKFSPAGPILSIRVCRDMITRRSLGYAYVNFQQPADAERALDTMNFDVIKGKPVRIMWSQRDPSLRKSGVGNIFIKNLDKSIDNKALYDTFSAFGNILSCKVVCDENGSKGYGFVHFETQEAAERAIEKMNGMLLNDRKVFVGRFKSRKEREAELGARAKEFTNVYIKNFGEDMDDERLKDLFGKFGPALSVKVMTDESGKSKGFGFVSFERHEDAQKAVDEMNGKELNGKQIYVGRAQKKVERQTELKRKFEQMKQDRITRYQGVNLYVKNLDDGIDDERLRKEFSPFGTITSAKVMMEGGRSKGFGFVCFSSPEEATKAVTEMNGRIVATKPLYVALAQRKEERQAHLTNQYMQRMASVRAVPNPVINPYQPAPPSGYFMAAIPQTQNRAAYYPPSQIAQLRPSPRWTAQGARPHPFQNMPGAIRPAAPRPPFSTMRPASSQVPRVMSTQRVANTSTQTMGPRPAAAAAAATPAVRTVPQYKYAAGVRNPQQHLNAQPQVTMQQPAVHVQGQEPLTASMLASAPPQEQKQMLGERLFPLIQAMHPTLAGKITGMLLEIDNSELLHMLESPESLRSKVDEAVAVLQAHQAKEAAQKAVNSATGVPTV
Chain of Paired box protein Pax-8 (Q06710 whole entry): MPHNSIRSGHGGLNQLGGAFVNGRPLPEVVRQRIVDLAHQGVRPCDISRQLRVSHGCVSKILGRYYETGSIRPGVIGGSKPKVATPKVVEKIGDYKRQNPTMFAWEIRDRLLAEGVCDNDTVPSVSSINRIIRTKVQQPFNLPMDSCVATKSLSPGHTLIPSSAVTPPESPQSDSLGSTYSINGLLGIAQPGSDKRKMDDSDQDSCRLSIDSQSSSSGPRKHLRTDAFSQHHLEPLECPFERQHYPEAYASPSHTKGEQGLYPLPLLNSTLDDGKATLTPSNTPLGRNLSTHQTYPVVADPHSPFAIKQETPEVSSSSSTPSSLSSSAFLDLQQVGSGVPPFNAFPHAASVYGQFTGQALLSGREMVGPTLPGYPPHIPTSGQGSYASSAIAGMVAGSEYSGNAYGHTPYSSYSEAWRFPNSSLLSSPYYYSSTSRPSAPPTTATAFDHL

## Cc1cccc(NC(=O)CSC(N)=O)c1C
[1]
  IC50: > 66 µM (inactive)
[2]
  EC50: > 150 µM (inactive)
[3]
  EC50: > 38 µM (not active)
[4]
  IC50: > 66 µM (inactive)

## C=CCn1cc/c(=N\C=C(C#N)C#N)c2ccccc21
[5]
  EC50: > 300 µM (not active)
[6]
  EC50: > 300 µM (not active)

## CCc1ccc(NCc2nc(-c3ccccc3)no2)cc1
Protein skinhead-1
  IC50: > 100 µM (inactive)

## CC/N=c1\scc(-c2ccco2)n1/N=C/c1ccc(OC)c(O)c1
[7]
  CC50: > 40 µM (active)

## Cn1c(=O)[nH]c(=O)c2c1nc(N/N=C/C(Br)=C/c1ccccc1)n2CCO
[5]
  EC50: 55.5 µM (active)
[6]
  EC50: 206 µM (active)

## Cc1cc(=O)oc2cc(OCC(=O)N3CCN(C(=O)C4COc5ccccc5O4)CC3)c(Cl)cc12 (stereo not given)
H9c2
  IC50: > 79 µM (inactive)

## O=C(CSc1ccc(-c2ccccn2)nn1)N1CCCc2ccccc21
H9c2
  IC50: 20.8 µM (active)

## NC(=O)c1ccccc1OCC(=O)Nc1cccnc1Cl
H9c2
  IC50: 27.7 µM (active)

## O=C(Nc1cccc(Oc2ccccc2)c1)C1Cc2c(-c3ccc4c(c3)OCO4)ccnc2O1 (stereo not given)
Protein skinhead-1
  IC50: > 100 µM (inactive)

## Cc1ccc(-c2ccc(=O)n(CC(=O)N3CCN(c4cc(Cl)ccc4C)CC3)n2)cc1
[7]
  CC50: > 40 µM (active)

## O=C(Cc1ccccc1)N/N=C/c1ccc2cccc(O)c2n1
[7]
  CC50: > 40 µM (active)

## O=C(C1CC(=O)N(c2ccc3c(c2)OCCO3)C1)N1CCN(c2cccc(C(F)(F)F)c2)CC1 (stereo not given)
[7]
  CC50: > 40 µM (active)

## N#C/C(=C1\CCCN1)c1nc(O)c2ccccc2n1
[8]
  EC50: > 53 µM (inactive)
[9]
  IC50: > 47.1 µM (inactive)
H9c2
  IC50: 60.4 µM (inactive)

## Brc1ccc(-c2ccc(/C=N/Nc3nncc(-c4ccccc4)n3)o2)cc1
[7]
  CC50: 20.7 µM (active)

## Oc1cccc2cc(Nc3ccccc3)cnc12
Paired box protein Pax-8
  AC50: 1.37 µM (active)
[10]
  AC50: 1.4 µM (active)
[11]
  AC50: 0.644 µM (active)
[12]
  AC50: 4 µM (active)

## C=CCOC(=O)C1=C[C@H](c2cn(C(C)=O)c3ccccc23)C[C@H](OCc2ccc(CO)cc2)O1
H9c2
  IC50: 10.3 µM (active)

## Cc1ccc(C2C(C(=O)c3ccco3)=C(O)C(=O)N2c2nnc(C)s2)cc1 (stereo not given)
[5]
  EC50: > 300 µM (inconclusive)
[6]
  EC50: > 300 µM (not active)

## CN(C)CCCO[C@@H]1[C@H]2OC(C)(C)O[C@H]2O[C@@H]1[C@H](O)CO [AMIPRILOSE HYDROCHLORIDE]
Protein skinhead-1
  IC50: > 100 µM (inactive)

## O=C(CN1C2CCC1CC(NC(=O)C1CC1)C2)NCc1ccccc1 (stereo not given)
Protein skinhead-1
  IC50: > 100 µM (inactive)

## C=C1c2cccc(OC)c2O[C@H](C(=O)OCC)[C@@H]1CCCCCC
[13]
  IC50: 10.2 µM (active)

## Cc1cc2cc(CN=C(S)Nc3ccc(OC(F)F)cc3)ccc2n1C
[1]
  IC50: > 66 µM (inactive)
Protein skinhead-1
  IC50: > 100 µM (inactive)
[4]
  IC50: > 66 µM (inactive)

## Cc1cc(C)c(S(=O)(=O)N2Cc3ccccc3-n3nncc3C2)c(C)c1
[10]
  AC50: 5.53 µM (active)
[11]
  AC50: 4.36 µM (active)
[12]
  AC50: 49.7 µM (active)

## NC(=O)c1ccsc1NC(=O)COC(=O)Cc1nnc(O)c2ccccc12
H9c2
  IC50: > 79 µM (inactive)

## O=C(NCc1ccc(F)c(F)c1)c1ccc(-c2ccc(F)c(F)c2)c2ccoc12
Protein skinhead-1
  IC50: < 3.13 µM (active)

## O=c1[nH]c2cc(Cl)c(Br)cc2o1 [BROMCHLORENONE]
Protein skinhead-1
  IC50: > 100 µM (inactive)

## CCOc1ccc(C(=O)COC(=O)Cn2[nH]c(=O)c3ccccc3c2=O)cc1
H9c2
  IC50: > 79 µM (inactive)

## N#CCC(=O)N/N=C/c1ccc(Sc2nc3ccccc3s2)o1
[13]
  IC50: 9.4 µM (active)

## COC(=O)CNC(=O)C1Nc2ccccc2C2C=CCC12 (stereo not given)
[5]
  EC50: 173 µM (active)
[6]
  EC50: > 300 µM (not active)

## O=C(Nc1cccc(-c2csc(Nc3ccc(Cl)cc3)n2)c1)c1cccc(C(F)(F)F)c1
[7]
  CC50: 20.6 µM (active)

## NC(=S)N/N=C/c1ccccc1OCCSc1ccc(Cl)cc1
[14]
  EC50: > 60 µM (not active)
[7]
  CC50: 24.6 µM (active)
[15]
  EC50: 0.224 µM (active)

## Cc1nn(-c2cc(Cl)ccc2N)c(=O)c2ccccc12
[13]
  IC50: 63.2 µM (active)

## O=C(Nc1ccc(Cl)cc1)Nc1ccc(Br)cn1
Protein skinhead-1
  IC50: > 100 µM (inactive)
